Measurements: patent publication US4333926A, “Steryl-β-D-glucoside pharmaceutical compositions and use” (Nippon Shinyaku Co., Ltd., priority 1979, dated 1982)
Like-named read-outs stand apart in the source and are kept apart here.

Key:
[1] = tested on: increased vascular permeability caused by histamine; test: Increased vascular permeability caused by histamine, rabbit; format: in vivo; conditions: 100 mg/kg, i.p.
Procedure: (§1) The inhibitory effect on increased vascular permeability caused by intracutaneous administration of histamine, hyaluronidase, lecithinase A and formalin is also correlated to vascular stabilization. This parameter was measured by the dye leakage method with the inhibitory effect of each test drug expressed in terms of inhibiting rate over the control according to the methods of Benditt et al., Proc. Soc. Biol. Med. 75 782 1950 and Orary et al., J. Exp. Med. 117, 951, 1963.

[2] = tested on: increased vascular permeability induced by formalin; test: Increased vascular permeability induced by formalin; format: in vivo, rabbits; conditions: 100 mg/kg, i.p.
Procedure: as §1

[3] = tested on: bleeding from amputated tail tip; test: Hemostatic effect, bleeding from amputated tail tip (Motohashi et al.); format: in vivo, mice
[4] = tested on: increased vascular permeability induced by hyaluronidase; test: Increased vascular permeability induced by hyaluronidase, rabbit; format: in vivo; conditions: 100 mg/kg, i.p.
Procedure: as §1

[5] = tested on: hemorrhages induced by vesical mucosal resection; test: Hemorrhage induced by vesical mucosal resection (Dermaut et al.); format: in vivo, dogs; conditions: 5 mg/kg i.v.
[6] = tested on: increased vascular permeability induced by hyaluronidase; test: Increased vascular permeability induced by hyaluronidase, rat; format: in vivo; conditions: 100 mg/kg, i.p.
Procedure: as §1

endotoxin shock = test: Endotoxin shock mortality (48 hours); format: in vivo
Procedure: The mortality rate during the period of 48 hours following intravenous administration of 80% lethal dose (8 mg/kg) of endotoxin is observed with the effect of each compound being expressed as the ED50 (see Tanabe et al., Pharmacometrics Vol. 7 591, 1973).

[7] = tested on: passive systemic anaphylaxis; test: Passive systemic anaphylaxis lethality (Munoz et al.); format: in vivo, guinea-pigs
Procedure: The preventive effect against passive systemic anaphylaxis was determined according to the method of Munoz et al., J. Immunol., 80, 77 (1958). An antigen of 80% lethal dose is intravenously administered to antiserum-sensitized guinea-pigs, and the resultant passive systemic anaphylaxis lethality is expressed as the inhibition rate as compared with the control group.

[8] = tested on: local hemorrhage induced by snake venom (Naja Naja cobra); test: Local hemorrhage induced by snake venom; format: in vivo, rats
Procedure: The inhibitory effect of SG and SGP on local hemorrhage induced by abdominal intracutaneous administration of snake venom (Naja Naja cobra) in rats was determined in terms of inhibiting rate against untreated control rats.

[9] = tested on: abdominal cutaneous vascular resistance; test: Abdominal cutaneous vascular resistance, petechia appearance under reduced pressure (Borbely et al.); format: in vivo, guinea-pigs; conditions: 100 mg/kg, s.c.; reduced pressure 250 to 260 mm Hg
Text: The effect on abdominal cutaneous vascular resistance in guinea-pigs can also be used as a model of vascular stabilization. The time of appearance of petechia in abdominal skin of guinea-pigs under reduced pressure of 250 to 260 mm Hg is used as the index, with the petechia appearance delaying effect of each test compound in comparison with the control being determined according to the method of V. Borbely et al., Munch.

[10] = tested on: increased vascular permeability induced by lecithinase A; test: Increased vascular permeability induced by lecithinase A; format: in vivo, rabbits; conditions: 100 mg/kg, i.p.
Procedure: as §1

[11] = tested on: bleeding from punctured ear vein; test: Inhibitory effect on bleeding from ear vein (Duke); format: in vivo, rabbits; conditions: 10 mg/kg i.v., 3 hours after administration
Text: The hemostatic effect can also be observed by measuring the inhibitory effect on bleeding from ear vein in rabbits.

Arthus reaction = test: Arthus reaction, increased vascular permeability (Benacerral et al.); format: in vivo, guinea-pigs; conditions: 100 mg/kg, i.p.; 5 hours after provocation
Procedure: Increased vascular permeability five hours after provocation of reaction is measured as the leakage of hemoglobin according to the method of Benacerral et al., J. Immunol.

[12] = tested on: pulmonary hemorrhage under reduced pressure; test: Vascular stabilization: pulmonary hemorrhage in mice under reduced pressure (Table 6; vascular stability summary table); format: in vivo; conditions: for ED50 (pulmonary hemorrhage): reduced pressure 50±0.5 mm Hg/15 sec; for ED50: Mus musculus, iv, read-out: Vascular stability ED50
Procedure: For example, the following tables summarize the vascular stabilizing effect (described in detail below).
The surprising vascular stabilizing effect of these compounds can also be shown in a number of recognized models of which the following are typical.
The degree of pulmonary homorrhage in mice under reduced pressure of 50±0.5 mm Hg/15 sec was assessed by the scoring method, the ED50 of each compound being calculated from the ratio of inhibiting rate for treated animals over that for the control group according to the method of G. J. Mojovski et al., J. Pharmacol. Exp. Therap. 80, 1, 1944.

[13] = tested on: gastric mucosal hemorrhaging induced by electroshock; test: Gastric mucosal hemorrhage induced by electroshock (Danno et al.); format: in vivo, rats
[14] = tested on: increased vascular permeability caused by histamine; test: Increased vascular permeability caused by histamine, rat; format: in vivo; conditions: 100 mg/kg, i.p.
Procedure: as §1

CN1C2=CC(=O)/C(=N\NC(N)=O)C=C2CC1S(=O)(=O)[O-].[Na+] (centres unmarked) [Carbazochrome sodium sulfonate]
% Inhibition [1]: 29.6%
% Inhibition [2]: 0.4%
ED50 (hemostatic effect) ([3]; i.p.): 5.4 mg/kg
ED50 (hemostatic effect) ([3]; i.v.): 3.6 mg/kg
ED50 (hemostatic effect) ([3]; p.o.): 36.0 mg/kg
% Inhibition [4]: 4.7%
% Inhibition (bleeding) [5]: 39.9%
% Inhibition [6]: -4.5%
effect on endotoxin shock (endotoxin shock; doses of less than 200 mg/kg): no niticeable effect
ED50 (endotoxin shock) (endotoxin shock; i.p., endotoxin 80% lethal dose (8 mg/kg) i.v., 48 hours): > 200.0 mg/kg
inhibitory effect against death from endotoxin-shock (endotoxin shock; in vivo): far inferior in effect to SG and SGP
% Inhibition (PSA lethality) ([7]; 100 mg/kg, i.p., antigen 80% lethal dose i.v.): 20%
effect on passive systemic anaphylaxis ([7]; dose of 100 mg/kg): only very slight effects
inhibitory effect against hemorrhagic action of snake venom ([8]; 100 mg/kg): only slight effects
% Inhibition (local hemorrhage) ([8]; 100 mg/kg i.p.): 9.1%
Prolongation Rate (test group/control group) [9]: 1.7
% Inhibition [10]: 10.8%
% Reduction (time of bleeding) [11]: 20.0%
% Inhibition (Arthus reaction) (Arthus reaction): 26.3%
ED50 (pulmonary hemorrhage) ([12]; i.p.): 112.0 mg/kg
ED50 (pulmonary hemorrhage) ([12]; i.v.): 80.0 mg/kg
ED50 (pulmonary hemorrhage) ([12]; p.o.): 400.0 mg/kg
electroshock hemorrhage arresting effect ([13]; dose of 200 mg/kg): no noticeable effect
ED50 (inhibiting gastric mucosal hemorrhage) ([13]; s.c., electroshock 100-200 V, 3 times/min., 24 hours): > 200.0 mg/kg
% Inhibition [14]: 32.7%

CC[C@H](/C=C/[C@@H](C)[C@H]1CC[C@H]2[C@@H]3CC=C4C[C@@H](O[C@@H]5O[C@H](CO)[C@@H](O)[C@H](O)[C@H]5O)CC[C@]4(C)[C@H]3CC[C@]12C)C(C)C [Stigmasteryl-β-D-glucoside]
ED50 ([12]; summary table by compound): 2.33 mg/kg

CC(C)CCC[C@@H](C)[C@H]1CC[C@H]2[C@@H]3CC=C4C[C@@H](O[C@@H]5O[C@H](CO)[C@@H](O)[C@H](O)[C@H]5O)CC[C@]4(C)[C@H]3CC[C@]12C [Cholesteryl-β-D-glucoside]
ED50 ([12]; summary table by compound): 1.8 mg/kg

CC(C)[C@H](C)CC[C@@H](C)[C@H]1CC[C@H]2[C@@H]3CC=C4C[C@@H](O[C@@H]5O[C@H](CO)[C@@H](O)[C@H](O)[C@H]5O)CC[C@]4(C)[C@H]3CC[C@]12C [Campesteryl-β-D-glucoside]
ED50 [12]: 2.4 mg/kg

CC[C@H](CC[C@@H](C)[C@H]1CC[C@H]2[C@@H]3CC=C4C[C@@H](O[C@@H]5O[C@H](CO)[C@@H](O)[C@H](O)[C@H]5O)CC[C@]4(C)[C@H]3CC[C@]12C)C(C)C [β-sitosteryl-β-D-glucoside]
ED50 ([12]; summary table by compound): 1.48 mg/kg
